Source: patent US20260062422A1 (Halda Therapeutics OpCo, Inc., priority 2022, published 2026)

Legend:
[1] = system: T-Rex 293 cell line SC3 cells lacking increased expression of androgen receptor protein; assay: Cellular growth inhibition, T-Rex 293 SC3 cells without doxycycline, CellTiter-Glo; type: cell-based; conditions: T-Rex 293 SC3 cells not exposed to doxycycline, CellTiter-Glo 2.0
Method: (§1) The following types of cells were prepared for this experiment: (i) a T-Rex 293 cell line having increased expression of androgen receptor protein due to exposure to doxycycline and (ii) a T-Rex 293 cell line lacking increased expression of androgen receptor protein. Ability of the test compounds to inhibit proliferation of the foregoing cell types was evaluated according to the procedures set forth below.
(§2) The doxycycline-inducible androgen receptor protein expressing cell line was established using the following protocol: T-Rex 293 cells were purchased from Invitrogen (Cat #R71007) and transfected using Lipofectamine 2000 with the wild-type androgen receptor protein sequence cloned into the pcDNA4/TO vector. Transfected cells were selected using 400 μg/mL Zeocin (Invitrogen Cat #R25001). Following selection, single clones were raised and maintained in Dulbecco's Modified Eagle Medium (DMEM) supplemented with 10% w/w Tetracycline-free fetal bovine serum (FBS) and 250 μg/mL Zeocin. Clones were analyzed for expression of androgen receptor protein in the presence and absence of 10 ng/mL doxycycline (Sigma Cat #D9891), and a single doxycycline-inducible clone (hereinafter “SC3”) was selected for use in downstream assays.
(§3) The SC3 cells were seeded on poly-D-lysine coated, black clear-bottom 384-well plates at 2500/well, in 25 μL Phenol Red Free Dulbecco's Modified Eagle Medium (DMEM) supplemented with 10% w/w charcoal-dextran treated fetal bovine serum (FBS) and 1% w/w pen-strep, with or without 10 ng/mL doxycycline. Pen-Strep is a commercially available mixture of penicillin G and streptomycin, which is used in mammalian cell culture media to prevent bacterial contamination. Phenol Red Free Dulbecco's Modified Eagle Medium (DMEM) supplemented with 10% w/w charcoal-dextran treated fetal bovine serum (FBS) and 1% w/w pen-strep, with or without 10 ng/mL doxycycline is herein referred to as Treatment Medium. Following seeding of cells in the plates, the plates were spun at 300×g for 30 seconds, then equilibrated to room temperature for 30 minutes, and then deposited in a humidified tissue culture incubator maintained at 37° C. with 5% CO2.
(§4) At 24 hours after seeding of the cells, dilutions of test compound were prepared in DMSO and dissolved in Treatment Medium, to achieve a final DMSO concentration of 0.5% w/w, thereby providing the Test Compound Solution. A 25 μL aliquot of the Test Compound Solution was added to cells in the well plates. An equal volume of a solution containing DMSO and Treatment Medium was used as a negative control. Following treatment of cells with Test Compound Solution or said equal volume of a solution containing DMSO and Treatment Medium, the plates were spun at 300×g for 30 seconds, and then left in an incubator for 72 hours. At the end of the treatment duration, cell viability was quantified with CellTiter-Glo 2.0 reagent (Promega Cat #G9243). For this purpose, plates were equilibrated to room temperature for 30 minutes, and then 25 μL of CellTiter-Glo 2.0 reagent was added to cells in the plate wells. Plates were then agitated on a shaker for two minutes at 500 rpm and subsequently incubated at room temperature for 10 minutes. Following incubation, the plates were spun at 3000×g for 30 seconds, then sealed with an optical adhesive cover, and luminescence readings were measured with an EnVision Plate Reader. Data was normalized using zero luminescence for baseline. A four-parameter non-linear regression curve fit was applied to dose-response data in GraphPad Prism data analysis software to determine the half-maximal growth inhibitory concentration (GI50) for each test compound.

[2] = system: VCaP cells; assay: Cellular growth inhibition assay for VCaP cells, CellTiter-Glo; type: cell-based, human; conditions: Homo sapiens, VCaP, 72 h, 72 hours treatment, CellTiter-Glo 2.0
Method: VCaP cells were purchased from American Type Cell Culture (ATCC Cat #CRL2876) and then seeded on poly-D-lysine coated, black clear-bottom 384-well plates at 5000/well in 25 μL Dulbecco's Modified Eagle Medium (DMEM) supplemented with 10% w/w Fetal bovine serum (FBS) and 1% w/w Pen-Strep. Pen-Strep is a commercially available mixture of penicillin G and streptomycin, which is used in mammalian cell culture media to prevent bacterial contamination. Dulbecco's Modified Eagle Medium (DMEM) supplemented with 10% w/w fetal bovine serum (FBS) and 1% w/w Pen-Strep is herein referred to as Treatment Medium. Following seeding of cells in the plates, the plates were spun at 300×g for 30 seconds, then equilibrated to room temperature for 30 minutes, and then deposited in a humidified tissue culture incubator maintained at 37° C. with 5% CO2.
At 24 hours after seeding of the cells, dilutions of test compound were prepared in DMSO and dissolved in Treatment Medium, to achieve a final DMSO concentration of 0.5% w/w, thereby providing the Test Compound Solution. A 25 μL aliquot of the Test Compound Solution was added to cells in the well plates. An equal volume of a solution containing DMSO and Treatment Medium was used as a negative control. Following treatment of cells with Test Compound Solution or said equal volume of a solution containing DMSO and Treatment Medium, the plates were spun at 300×g for 30 seconds, and then left in an incubator for 72 hours.
At the end of the treatment duration, cell viability was quantified with CellTiter-Glo 2.0 reagent (Promega Cat #G9243). For this purpose, plates were equilibrated to room temperature for 30 minutes, and then 25 μL of CellTiter-Glo 2.0 reagent was added to cells in the plate wells. Plates were then agitated on a shaker for two minutes at 500 rpm and subsequently incubated at room temperature for 10 minutes. Following incubation, the plates were spun at 3000×g for 30 seconds, then sealed with an optical adhesive cover, and luminescence readings were measured with an EnVision Plate Reader.
Data was normalized using zero luminescence for baseline. A four-parameter non-linear regression curve fit was applied to dose-response data in GraphPad Prism data analysis software to determine the half-maximal growth inhibitory concentration (GI50) for each test compound.

[3] = system: T-Rex 293 cell line SC3 cells having increased expression of androgen receptor protein due to exposure to doxycycline; assay: Cellular growth inhibition, T-Rex 293 SC3 cells with doxycycline (androgen receptor induced), CellTiter-Glo; type: cell-based; conditions: T-Rex 293 SC3 cells with 10 ng/mL doxycycline (increased androgen receptor expression)
Method: as §1, §2, §3, §4

[4] = system: T47D cells; assay: Cellular growth inhibition assay for T47D cells, CellTiter-Glo; type: cell-based, human; conditions: Homo sapiens, T47D, 72 h, 72 hours treatment, CellTiter-Glo 2.0 cell viability
Method in brief: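 Growth inhibition as GI50, fitted with four parameters to CellTiter-Glo luminescence after 72 h of compound exposure (0.5% DMSO). Cells were T47D, grown in insulin-supplemented (0.2 units/mL) DMEM with 10% FBS and treated one day post-seeding.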

| Structure (SMILES) | GI50 [2] [nM] | GI50 [4] [nM] | GI50 ([1]; 72 h) [nM] | GI50 ([3]; 72 h) [nM] | GI50 ([1]; 72 hours) [nM] | GI50 ([3]; 72 hours) [nM] |
| --- | --- | --- | --- | --- | --- | --- |
| Cc1sc2c(c1C)C(c1ccc(Cl)cc1)=N[C@@H](CC(=O)NCCOCCOCCN(C)c1ncc(C(=O)N[C@H]3C(C)(C)[C@H](Oc4ccc(C#N)c(Cl)c4)C3(C)C)cn1)c1nnc(C)n1-2 [Compound I-2, N-[3-(3-chloro-4-cyano-phenoxy)-2,2,4,4-tetramethyl-cyclobutyl]-2-[2-[2-[2-[[2-[(9S)-7-(4-chlorophenyl)-4,5,13-trimethyl-3-thia-1,8,11,12-tetrazatricyclo[8.3.0.02,6]trideca-2(6),4,7,10,12-pentaen-9-yl]acetyl]amino]ethoxy]ethoxy]ethyl-methylamino]pyrimidine-5-carboxamide] | < 500 |  | 1500 to 3000 | < 500 |  |  |
| Cc1sc2c(c1C)C(c1ccc(Cl)cc1)=N[C@@H](CC(=O)NCCCCCCOC1CCN(c3ncc(C(=O)N[C@H]4C(C)(C)[C@H](Oc5ccc(C#N)c(Cl)c5)C4(C)C)cn3)CC1)c1nnc(C)n1-2 [Compound I-23] | < 500 |  | < 500 | < 500 |  |  |
| Cc1sc2c(c1C)C(c1ccc(Cl)cc1)=N[C@@H](CC(=O)NCCCCCCCCOC1CCN(c3ncc(C(=O)N[C@H]4C(C)(C)[C@H](Oc5ccc(C#N)c(Cl)c5)C4(C)C)cn3)CC1)c1nnc(C)n1-2 [Compound I-25] | > 3000 |  | > 3000 | < 500 |  |  |
| Cc1sc2c(c1C)C(c1ccc(Cl)cc1)=N[C@@H](CC(=O)NCCCOCCOC1CCN(c3ncc(C(=O)N[C@H]4C(C)(C)[C@H](Oc5ccc(C#N)c(Cl)c5)C4(C)C)cn3)CC1)c1nnc(C)n1-2 [Compound I-26] | < 500 |  | 500 to 1500 | < 500 |  |  |
| Cc1sc2c(c1C)C(c1ccc(Cl)cc1)=N[C@@H](CC(=O)NCCOCCCOC1CCN(c3ncc(C(=O)N[C@H]4C(C)(C)[C@H](Oc5ccc(C#N)c(Cl)c5)C4(C)C)cn3)CC1)c1nnc(C)n1-2 [Compound I-27] | < 500 |  | 500 to 1500 | < 500 |  |  |
| Cc1sc2c(c1C)C(c1ccc(Cl)cc1)=N[C@@H](CC(=O)NCCCOCCCOC1CCN(c3ncc(C(=O)N[C@H]4C(C)(C)[C@H](Oc5ccc(C#N)c(Cl)c5)C4(C)C)cn3)CC1)c1nnc(C)n1-2 [Compound I-29] | < 500 |  | 500 to 1500 | < 500 |  |  |
| Cc1sc2c(c1C)C(c1ccc(Cl)cc1)=NC(CC(=O)NCCOCCCCOC1CCN(c3ncc(C(=O)N[C@H]4C(C)(C)[C@H](Oc5ccc(C#N)c(Cl)c5)C4(C)C)cn3)CC1)c1nnc(C)n1-2 (some centres unmarked) [Compound I-30] | < 500 |  | < 500 | < 500 |  |  |
| Cc1sc2c(c1C)C(c1ccc(NC3C[C@@H]4CCC[C@@H](C3)N4c3ncc(C(=O)N[C@H]4C(C)(C)[C@H](Oc5ccc(C#N)c(Cl)c5)C4(C)C)cn3)cc1)=N[C@@H](Cc1ncco1)c1nnc(C)n1-2 (some centres unmarked) [Compound I-629] |  |  |  |  | > 3000 | < 500 |
| Cc1sc2c(c1C)C(c1ccc(N[C@H]3CCN(c4ncc(C(=O)N[C@H]5C(C)(C)[C@H](Oc6ccc(C#N)c(Cl)c6)C5(C)C)cn4)C[C@@H]3F)cc1)=NC(Cc1ncco1)c1nnc(C)n1-2 (some centres unmarked) [Compound I-630] |  |  | < 500 | < 500 |  |  |
| Cc1sc2c(c1C)C(c1ccc(N3[C@@H]4CC[C@H]3C[C@@H](Nc3ncc(C(=O)N[C@H]5C(C)(C)[C@H](Oc6ccc(C#N)c(Cl)c6)C5(C)C)cn3)C4)cc1)=N[C@@H](Cc1ncco1)c1nnc(C)n1-2 [Compound I-631] |  |  |  |  | > 3000 | < 500 |
| Cc1sc2c(c1C)C(c1ccc(N3CCC4(CCCN(c5ncc(C(=O)N[C@H]6C(C)(C)[C@H](Oc7ccc(C#N)c(Cl)c7)C6(C)C)cn5)C4)C3)cc1)=N[C@@H](Cc1ncco1)c1nnc(C)n1-2 (some centres unmarked) [Compound I-632] |  |  | > 3000 | < 500 |  |  |

Second part, led by results:

| GI50 [2] [nM] | GI50 [4] [nM] | Structure (SMILES) | GI50 ([1]; 72 h) [nM] | GI50 ([3]; 72 h) [nM] | GI50 ([1]; 72 hours) [nM] | GI50 ([3]; 72 hours) [nM] |
| --- | --- | --- | --- | --- | --- | --- |
| < 500 |  | Cc1sc2c(c1C)C(c1ccc(Cl)cc1)=N[C@@H](CC(=O)NCCCOCCCCOC1CCN(c3ncc(C(=O)N[C@H]4C(C)(C)[C@H](Oc5ccc(C#N)c(Cl)c5)C4(C)C)cn3)CC1)c1nnc(C)n1-2 [Compound I-33] | < 500 | < 500 |  |  |
| < 500 |  | Cc1sc2c(c1C)C(c1ccc(Cl)cc1)=N[C@@H](CC(=O)NCCOCCCCCOC1CCN(c3ncc(C(=O)N[C@H]4C(C)(C)[C@H](Oc5ccc(C#N)c(Cl)c5)C4(C)C)cn3)CC1)c1nnc(C)n1-2 [Compound I-34] | < 500 | < 500 |  |  |
| < 500 |  | Cc1sc2c(c1C)C(c1ccc(Cl)cc1)=N[C@@H](CC(=O)NCCCCN1CCN(CC3CCN(c4ncc(C(=O)N[C@H]5C(C)(C)[C@H](Oc6ccc(C#N)c(Cl)c6)C5(C)C)cn4)CC3)CC1)c1nnc(C)n1-2 [Compound I-37, N-((1r,3r)-3-(3-chloro-4-cyanophenoxy)-2,2,4,4-tetramethylcyclobutyl)-2-(4-((4-(4-(2-((S)-4-(4-chlorophenyl)-2,3,9-trimethyl-6H-thieno[3,2-f][1,2,4]triazolo[4,3-a][1,4]diazepin-6-yl)acetamido)butyl)piperazin-1-yl)methyl)piperidin-1-yl)pyrimidine-5-carboxamide] | 500 to 1500 | < 500 |  |  |
| < 500 |  | CCNC(=O)C[C@@H]1N=C(c2ccc(OCCCOC3CCN(c4ncc(C(=O)N[C@H]5C(C)(C)[C@H](Oc6ccc(C#N)c(Cl)c6)C5(C)C)cn4)CC3)cc2)c2c(sc(C)c2C)-n2c(C)nnc21 [Compound I-62] | < 500 | < 500 |  |  |
|  | 500 to 1500 | Cc1sc2c(c1C)C(c1ccc(OC[C@@H]3CCCN(c4cnc(C(=O)N[C@H]5C(C)(C)[C@H](Oc6ccc(C#N)c(Cl)c6)C5(C)C)cn4)C3)cc1)=N[C@@H](C)c1nnc(C)n1-2 [Compound I-588] | > 3000 | < 500 |  |  |
